#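 Results reflect a 48-hour exposure of cells in 96-well plates to compound at five concentrations. TGI: concentration producing complete growth inhibition.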
# What was measured:
# Assay in all cases: DTP human tumour cell line panel, 48 h
# [1] = tested on: SK-MEL-2 melanoma
# [2] = tested on: HL-60(TB) leukemia
# [3] = tested on: MDA-MB-231 breast
# [4] = tested on: K-562 leukemia
# [5] = tested on: HT29 colon
# [6] = tested on: SK-OV-3 ovarian
# [7] = tested on: MCF7 breast
# [8] = tested on: A498 renal
# [9] = tested on: SW-620 colon
# [10] = tested on: EKVX NSCLC
# [11] = tested on: NCI-H460 lung
# [12] = tested on: OVCAR-3 ovarian
# [13] = tested on: MOLT-4 leukemia
# [14] = tested on: ACHN renal
# [15] = tested on: MALME-3M melanoma
# [16] = tested on: U251 CNS
# [17] = tested on: NCI-H23 lung
# [18] = tested on: HCT-15 colon
# [19] = tested on: MDA-MB-435
Compound,TGI [1],TGI [2],TGI [3],TGI [4],TGI [5],TGI [6],TGI [7],TGI [8],TGI [9],TGI [10],TGI [11],TGI [12],TGI [13],TGI [14],TGI [15],TGI [16],TGI [17],TGI [18],TGI [19]
O=S(=O)(O)c1ccc2c(N=Nc3ccc(S(=O)(=O)O)c4ccccc34)c(O)c(S(=O)(=O)O)cc2c1,> 100 µM,> 100 µM,> 100 µM,> 100 µM,> 100 µM,> 100 µM,> 100 µM,> 100 µM,> 100 µM,> 100 µM,> 100 µM,> 100 µM,> 100 µM,> 100 µM,> 100 µM,> 100 µM,> 100 µM,> 100 µM,> 100 µM
C/C(=N\Nc1nc2ccccc2[nH]1)c1cnccn1,26 µM,0.429 µM,> 57.8 µM,> 100 µM,> 48 µM,> 100 µM,> 66.8 µM,7.75 µM,> 66 µM,> 34.4 µM,> 100 µM,> 100 µM,> 100 µM,–,> 25.6 µM,> 59.5 µM,> 30.7 µM,> 100 µM,> 29.6 µM
CN(/N=C/c1ccccn1)C1=NCCCN1,> 100 µM,> 100 µM,> 100 µM,> 100 µM,> 100 µM,> 100 µM,> 100 µM,> 100 µM,> 100 µM,> 100 µM,> 100 µM,> 100 µM,> 100 µM,> 100 µM,> 100 µM,> 100 µM,> 100 µM,> 100 µM,> 100 µM
CC/C(Cl)=N\OC(=O)Nc1ccc(OC)c(C)c1,49.9 µM,> 44.5 µM,> 88.6 µM,> 91.2 µM,41.2 µM,> 100 µM,> 64.3 µM,61.2 µM,> 68.8 µM,10.1 µM,> 100 µM,50 µM,47 µM,21.5 µM,26.6 µM,> 100 µM,36.5 µM,34.5 µM,> 100 µM
Nc1cccc(OCC2CCCN3CCCCC23)c1 (stereo not drawn),44.9 µM,39.7 µM,32.6 µM,76.1 µM,25.1 µM,> 100 µM,37.1 µM,28.2 µM,39.4 µM,31.7 µM,36.3 µM,38.2 µM,39.2 µM,31.9 µM,40.4 µM,44.6 µM,34.3 µM,31.5 µM,40.2 µM
CO[C@]12S[C@@H]3CCCC[C@@]31C(C)(C)C(=O)N2c1ccccc1,95.5 µM,42.5 µM,> 100 µM,> 100 µM,> 100 µM,76.8 µM,> 100 µM,> 100 µM,> 100 µM,> 100 µM,> 100 µM,38.5 µM,78.2 µM,> 100 µM,> 100 µM,> 100 µM,> 100 µM,> 100 µM,> 100 µM
